In PubChem BioAssay AID330 (DTP/NCI, 2004):
Values joined by “and” are separate entries in the source; they are usually repeats but may differ in a detail not shown here. Equal values may be shown once. Toxic doses and inconclusive results are not listed. How the source made its calls: active means survival T/C of 150% or more; inactive means T/C below 125% in these data.

Test system: P388 leukemia ip, CD2F1 mice, survival T/C
Assay: NCI In Vivo Anticancer Drug Screen. Data for tumor model P388 Leukemia (intraperitoneal) in CD2F1 (CDF1) mice
Details: endpoint: median survival time, higher = longer survival
Outline: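 Mice carrying the transplanted tumor received test compound or vehicle. Survival was recorded in each group, and the value is the treated-group measurement divided by that of the vehicle-treated control group.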

[1] = dose: 50.0 mg/kg/injection, schedule: Q01DX009 (ip), vehicle: other
[2] = dose: 100.0 mg/kg/injection, schedule: Q01DX009 (ip), vehicle: other
[3] = dose: 200.0 mg/kg/injection, schedule: Q01DX009 (ip), vehicle: other
[4] = dose: 25.0 mg/kg/injection, schedule: Q01DX005 (ip), vehicle: saline with Tween-80
[5] = dose: 50.0 mg/kg/injection, schedule: Q01DX005 (ip), vehicle: saline with Tween-80
[6] = dose: 100.0 mg/kg/injection, schedule: Q04DX003 (ip), vehicle: Klucel (hydroxypropylcellulose) (HPC)
[7] = dose: 200.0 mg/kg/injection, schedule: Q04DX003 (ip), vehicle: Klucel (hydroxypropylcellulose) (HPC)
[8] = dose: 25.0 mg/kg/injection, schedule: Q01DX009 (ip), vehicle: saline with Tween-80
[9] = dose: 50.0 mg/kg/injection, schedule: Q01DX009 (ip), vehicle: saline with Tween-80
[10] = dose: 100.0 mg/kg/injection, schedule: Q01DX009 (ip), vehicle: saline with Tween-80
[11] = dose: 60.0 mg/kg/injection, schedule: Q01DX005 (ip), vehicle: saline with Tween-80
[12] = dose: 120.0 mg/kg/injection, schedule: Q01DX005 (ip), vehicle: saline with Tween-80
[13] = dose: 50.0 mg/kg/injection, schedule: Q01DX009 (ip), vehicle: Klucel (hydroxypropylcellulose) (HPC)
[14] = dose: 100.0 mg/kg/injection, schedule: Q01DX009 (ip), vehicle: Klucel (hydroxypropylcellulose) (HPC)
[15] = dose: 200.0 mg/kg/injection, schedule: Q01DX009 (ip), vehicle: Klucel (hydroxypropylcellulose) (HPC)
[16] = dose: 100.0 mg/kg/injection, schedule: Q04DX003 (ip), vehicle: saline with Tween-80
[17] = dose: 100.0 mg/kg/injection, schedule: Q04DX002 (ip), vehicle: saline with Tween-80
[18] = dose: 200.0 mg/kg/injection, schedule: Q04DX002 (ip), vehicle: saline with Tween-80
[19] = dose: 400.0 mg/kg/injection, schedule: Q04DX002 (ip), vehicle: saline with Tween-80
[20] = dose: 100.0 mg/kg/injection, schedule: Q01DX005 (ip), vehicle: saline with Tween-80

Measured: T/C

O=C(Oc1ccccc1)N1CCOCC1
inactive: [1] 96 % of control | [2] 102 % of control | [3] 112 % of control

CCCCCCCCCCCCCCCCC1CCCC1C1CCCC1 (stereo not drawn)
inactive: dose: 12.5 mg/kg/injection, schedule: Q01DX001 (ip), vehicle: saline with Tween-80 104 % of control | dose: 25.0 mg/kg/injection, schedule: Q01DX001 (ip), vehicle: saline with Tween-80 104 % of control | dose: 50.0 mg/kg/injection, schedule: Q01DX001 (ip), vehicle: saline with Tween-80 104 % of control

COc1ccc2c(NCCCCCCCCNc3c4ccc(OC)cc4nc4cc([N+](=O)[O-])ccc34)c3ccc([N+](=O)[O-])cc3nc2c1
inactive: dose: 0.63 mg/kg/injection, schedule: Q01DX009 (ip), vehicle: other 88 % of control | dose: 1.25 mg/kg/injection, schedule: Q01DX009 (ip), vehicle: other 88 % of control | dose: 2.5 mg/kg/injection, schedule: Q01DX009 (ip), vehicle: other 119 % of control | dose: 5.0 mg/kg/injection, schedule: Q01DX009 (ip), vehicle: other 120 % of control | dose: 10.0 mg/kg/injection, schedule: Q01DX009 (ip), vehicle: other 121 % of control | dose: 20.0 mg/kg/injection, schedule: Q01DX009 (ip), vehicle: other 120 % of control

CC(=O)c1c(-c2ccc(Cl)cc2)c(-c2ccc(Cl)cc2)nn(CCN)c1=O
inactive: dose: 12.5 mg/kg/injection, schedule: Q01DX005 (ip), vehicle: saline with Tween-80 100 % of control | [4] 98 % of control | [5] 98 % of control and 95 % of control

CNC(=O)NNc1ccccc1
inactive: dose: 25.0 mg/kg/injection, schedule: Q04DX003 (ip), vehicle: Klucel (hydroxypropylcellulose) (HPC) 100 % of control | dose: 50.0 mg/kg/injection, schedule: Q04DX003 (ip), vehicle: Klucel (hydroxypropylcellulose) (HPC) 102 % of control | [6] 97 % of control | [7] 102 % of control | dose: 400.0 mg/kg/injection, schedule: Q04DX003 (ip), vehicle: Klucel (hydroxypropylcellulose) (HPC) 103 % of control

CC(C)=CCN1C(=O)c2ccccc2C1=O
inactive: [8] 109 % of control | [9] 109 % of control | [10] 104 % of control | dose: 100.0 mg/kg/injection, schedule: Q01DX009 (ip), vehicle: saline 94 % of control | dose: 100.0 mg/kg/injection, schedule: Q01DX009 (ip), vehicle: suspension in saline 98 % of control and 91 % of control | dose: 200.0 mg/kg/injection, schedule: Q01DX009 (ip), vehicle: saline 102 % of control | dose: 200.0 mg/kg/injection, schedule: Q01DX009 (ip), vehicle: suspension in saline 100 % of control and 103 % of control | dose: 400.0 mg/kg/injection, schedule: Q01DX009 (ip), vehicle: saline 120 % of control | dose: 400.0 mg/kg/injection, schedule: Q01DX009 (ip), vehicle: suspension in saline 110 % of control and 91 % of control

O=C(O)c1ccc2c(c1)C(=O)c1c(O)ccc(O)c1C2=O
inactive: [9] 92 % of control | [10] 103 % of control | dose: 200.0 mg/kg/injection, schedule: Q01DX009 (ip), vehicle: saline with Tween-80 103 % of control

O=C(NC(CCS(=O)(=O)F)C(=O)OCc1ccccc1)OCc1ccccc1 (stereo not drawn)
inactive: dose: 12.5 mg/kg/injection, schedule: Q01DX009 (ip), vehicle: other 102 % of control | dose: 25.0 mg/kg/injection, schedule: Q01DX009 (ip), vehicle: other 97 % of control | [1] 100 % of control | [2] 102 % of control | [3] 105 % of control

COc1ccc(-n2cc(-c3ccc(Cl)cc3)c3c(N)ncnc32)cc1
inactive: [11] 105 % of control | [12] 94 % of control | dose: 240.0 mg/kg/injection, schedule: Q01DX005 (ip), vehicle: saline with Tween-80 86 % of control

CCC(=O)C12CCCC1=NC(=N)N=C2C1=NC(=N)N=C2CCCC21C(=O)CC (stereo not drawn)
inactive: dose: 60.0 mg/kg/injection, schedule: Q01DX005 (ip), vehicle: saline 102 % of control | dose: 120.0 mg/kg/injection, schedule: Q01DX005 (ip), vehicle: saline 108 % of control | dose: 240.0 mg/kg/injection, schedule: Q01DX005 (ip), vehicle: saline 88 % of control

COCn1cc(C(N)=O)c(=O)c2c(N)nc(SC)nc21
inactive: dose: 25.0 mg/kg/injection, schedule: Q04DX002 (ip), vehicle: saline with Tween-80 96 % of control

Cc1ccc(N2CCN(C(=O)C3=Cc4ccccc4OC3)CC2)cc1C
inactive: [6] 100 % of control | [7] 88 % of control

c1ccc(N(c2ccccc2)c2nnnn2-c2ccccc2)cc1
inactive: [8] 98 % of control | [9] 94 % of control | [10] 89 % of control

CC1(C)N=C(c2ccccc2)C(c2ccccc2)=NC1(C)C
inactive: dose: 100.0 mg/kg/injection, schedule: Q04DX002 (ip), vehicle: saline 101 % of control | dose: 200.0 mg/kg/injection, schedule: Q04DX002 (ip), vehicle: saline 98 % of control | dose: 400.0 mg/kg/injection, schedule: Q04DX002 (ip), vehicle: saline 104 % of control

CCN(CC)C(=O)c1ccc[n+](CCC(N)=O)c1
inactive: dose: 100.0 mg/kg/injection, schedule: Q04DX003 (ip), vehicle: saline 90 % of control | dose: 200.0 mg/kg/injection, schedule: Q04DX003 (ip), vehicle: saline 100 % of control | dose: 400.0 mg/kg/injection, schedule: Q04DX003 (ip), vehicle: saline 100 % of control

O=C1CC2(C(=O)N1CN1CCOCC1)c1ccccc1-c1ccccc12
inactive: dose: 50.0 mg/kg/injection, schedule: Q04DX002 (ip), vehicle: Klucel (hydroxypropylcellulose) (HPC) 109 % of control | dose: 100.0 mg/kg/injection, schedule: Q04DX002 (ip), vehicle: Klucel (hydroxypropylcellulose) (HPC) 99 % of control and 108 % of control | dose: 200.0 mg/kg/injection, schedule: Q04DX002 (ip), vehicle: Klucel (hydroxypropylcellulose) (HPC) 111 % of control

C=Cc1cc(C)ccc1C(=O)OCCCCCCCCCCCC
inactive: [13] 98 % of control | [14] 101 % of control | [15] 98 % of control

CN(C)c1ccc(/C=C/C=N/NC(=S)NC23CC4CC(CC(C4)C2)C3)cc1
inactive: [11] 89 % of control | [12] 86 % of control

COC(=O)/C=C(\NC1CC(OC2C[C@](O)(C(C)=O)Cc3c(O)c4c(c(O)c32)C(=O)c2c(OC)cccc2C4=O)OC(C)C1O)C(=O)OC (stereo partly drawn)
inactive: dose: 6.25 mg/kg/injection, schedule: Q04DX003 (ip), vehicle: saline with Tween-80 104 % of control | dose: 12.5 mg/kg/injection, schedule: Q04DX003 (ip), vehicle: saline with Tween-80 105 % of control and 115 % of control | dose: 25.0 mg/kg/injection, schedule: Q04DX003 (ip), vehicle: saline with Tween-80 121 % of control | [16] 121 % of control

CC(=O)OB(OC(C)=O)O[B-]12Oc3ccccc3C=[N+]1c1ccccc1S2 (stereo not drawn)
inactive: [17] 106 % of control | [18] 97 % of control | [19] 92 % of control

CCCCCCC(O)C/C=C\CCCCCCc1c(C(=O)OC)[nH]c(=S)[nH]c1=O (stereo not drawn)
inactive: [11] 94 % of control | [12] 97 % of control

O=C(O)C(Cc1ccccc1)NP(=S)(c1ccccc1)c1ccccc1 (stereo not drawn)
inactive: [13] 110 % of control | [14] 97 % of control | [15] 106 % of control

COc1ccc2nc(N/N=C/c3ccccn3)cc(C)c2c1
inactive: [4] 103 % of control | [5] 110 % of control and 112 % of control | [20] 103 % of control

O=c1[nH][nH]c(=O)c2[nH]cnc12
inactive: dose: 50.0 mg/kg/injection, schedule: Q04DX003 (ip), vehicle: saline with Tween-80 98 % of control | [16] 100 % of control | dose: 200.0 mg/kg/injection, schedule: Q04DX003 (ip), vehicle: saline with Tween-80 100 % of control | dose: 400.0 mg/kg/injection, schedule: Q04DX003 (ip), vehicle: saline with Tween-80 106 % of control

CC(=O)NCc1cc([N+](=O)[O-])ccc1O
inactive: [5] 101 % of control | [20] 94 % of control | dose: 200.0 mg/kg/injection, schedule: Q01DX005 (ip), vehicle: saline with Tween-80 99 % of control

COc1ccc(C(C)c2cc3c(cc2OCCOC(C)=O)OCO3)cc1 (stereo not drawn)
inactive: [17] 103 % of control | [18] 100 % of control | [19] 100 % of control
